In patent US11673933B2, “Method for using insulin degludec for the improvement of glycemic control and reduction of acute and long-term diabetes complications” (Novo Nordisk A/S, priority 2016, dated 2023):

How the values were obtained:
[1] = test system: individuals with type 2 diabetes and established cardiovascular risk (MACE); experiment: CV risk model based on the DEVOTE trial: MACE hazard ratio IDeg/IGlar by CV risk score and subgroup; format: in vivo, human
Method: (§1) A long-term, multi-centre, multi-national, randomised, double-blind, parallel-group, active comparator-controlled trial with 7637 human subjects was carried out with treatment that would continue until at least 633 positively adjudicated primary cardiovascular events were accrued. This trial concerned incidence of cardiovascular events in adult human subjects with type 2 diabetes that were at high risk for cardiovascular events, including such subjects with existing cardiovascular disease. The primary objective of this trial was to confirm the cardiovascular safety of insulin degludec compared to that of insulin glargine. The secondary objective was to assess efficacy of insulin degludec on markers of glycaemic control and to assess safety on other parameters in subjects with type 2 diabetes that were at high risk for cardiovascular events.
The results of this trial may be presented herein as a number or fraction of subjects experiencing an event. Alternatively, the results of this trial may be presented with hazard ratios estimated in a Cox proportional hazard model, which is the standard statistical model used for estimating time to an event. The term “hazard ratio” (also referred to as “HR”) as used herein means the instantaneous risk ratio of experiencing an event when administered insulin degludec compared to insulin glargine which are the two treatments in this trial. An upper limit of the 95% confidence interval (CI) for the HR of less than 1.00 means that the estimated treatment ratio between insulin degludec and insulin glargine with respect to the event of interests is statistically significant in favour of insulin degludec on a 5% significance level. A 5% significance level is the standard level for investigating significance in clinical trials.
Based on the DEVOTE trial, a cardiovascular (CV) risk score has been developed for individuals with established cardiovascular risk. This risk score was developed using available medical history, baseline information and cardiovascular events occurring during the trial. […] The variables are listed in descending order according to their impact on the overall risk of major adverse cardiovascular events (MACE), here consisting of cardiovascular death, non-fatal myocardial infarction, or non-fatal stroke. The combination of these variables yields an algorithm that can be used to determine the risk of future MACEs and to determine the benefit of being treated with IDeg compared to IGlar.
The CV risk score and estimated MACE hazard ratio for CV risk scores by quartiles based on number of events are presented in FIG. 1. […] This benefit is seen regardless of which of the individual predictors contribute to the high score.
For example, subjects with a BMI ≥30 kg/m^2 and diastolic blood pressure ≥80 mmHg, and subjects with a diastolic blood pressure ≥80 mmHg who were treated with statins would have a benefit with IDeg compared to IGlar in terms of risk of MACE (Table 25).

[2] = test system: human subjects with type 2 diabetes inadequately controlled with basal insulin and metformin; conditions: in vivo
Method: (§2) A 26-week randomised, parallel two-arm, double-blind, multi-centre, multinational, treat-to-target trial in 413 human subjects with type 2 diabetes inadequately controlled with basal insulin and metformin with or without SU or glinides was carried out comparing the efficacy and safety of insulin degludec+liraglutide (Xultophy®, IDegLira) once daily with insulin degludec (Tresiba®, IDeg) once daily both added on to metformin. […] The secondary objective was to compare the overall efficacy and safety parameters of IDegLira and IDeg after 26 weeks of treatment. All trial endpoints were collected and assessed throughout the entire duration of the trial.
(§3) Eligible subjects were randomised 1:1 to either once daily IDegLira or once daily IDeg, both in combination with metformin. […] For each subject, the duration of the trial was to be approximately 29 weeks: up to 2 weeks between screening and first treatment, 26 weeks of treatment and at least 1 week of wash-out at the end of the trial.
(§4) The IDegLira dosing unit is defined as a dose step. One (1) IDegLira dose step consists of 1 unit insulin degludec and 0.036 mg liraglutide. Treatment with IDegLira was initiated at 16 dose steps containing 16 units insulin degludec and 0.6 mg liraglutide. Adjustment of the IDegLira dose was performed twice weekly based on the mean of 3 preceding daily fasting SMPG values on 3 consecutive days. Adjustments occurred in 2 dose steps aiming at a fasting glycaemic target of 4.0-5.0 mmol/L (72-90 mg/dL). The maximum allowed dose was 50 dose steps (50 units IDeg/1.8 mg liraglutide). IDeg treatment was initiated with 16 units, and titrated twice weekly to the fasting glycaemic target of 4.0-5.0 mmol/L (72-90 mg/dL) based on the mean fasting SMPG from 3 proceeding measurements as described for IDegLira. The maximum allowed dose was 50 units.
(§5) Subjects received IDegLira or IDeg by subcutaneous administration in addition to metformin. IDegLira or IDeg was injected subcutaneously in the thigh, upper arm (deltoid region) or abdomen once daily preferably at the same time every day. The injection area chosen were to remain unchanged throughout the trial, but rotation within the area was recommended.

[3] = test system: adult human subjects with type 2 diabetes at high risk for cardiovascular events; experiment: Example 1 cardiovascular outcomes trial (DEVOTE), insulin degludec vs insulin glargine: SMPG and blood pressure variability; format: in vivo
Method: as §1
Subjects were randomised 1:1 in a double-blinded manner to receive blinded insulin degludec or blinded insulin glargine, each added to standard of care. […] For subjects receiving premixed/biphasic insulin OD, the basal component was calculated and transferred unit-to-unit to investigational product OD. The bolus insulin component was calculated and transferred unit-to-unit to bolus insulin and given at the most appropriate meal at the investigator's discretion. For subjects receiving premixed/biphasic insulin twice daily (or more), the total basal component was calculated, reduced by 20-30% and transferred to investigational product OD; the bolus component was to be calculated and transferred to insulin aspart and dosed with the most appropriate meals at the investigator's discretion. […]
Subjects adjusted their basal insulin dose weekly, aiming for a pre-breakfast (fasting) SMPG value of 71-90 mg/dL (4.0-5.0 mmol/L) by using the algorithm in Table 6. The basal dose was adjusted based on the lowest of three pre-breakfast SMPG values, preferably measured two days prior to dose adjustment and on the day of the dose adjustment. […]

[4] = test system: human subjects with type 2 diabetes inadequately controlled with basal insulin and metformin; experiment: Example 4: 26-week double-blind trial, IDegLira vs IDeg, both added to metformin
Method: as §2, §3, §4, §5

Substance: N^εB29-(N^α-(HOOC(CH2)14CO)-γ-Glu) desB30 human insulin [IDeg]
- HR (MACE, IDeg/IGlar) ([1]; CV risk score High): 1.04
- HR (MACE, IDeg/IGlar) ([1]; CV risk score Low): 1.02
- HR (MACE, IDeg/IGlar) ([1]; CV risk score Moderate): 0.89
- HR (MACE, IDeg/IGlar) ([1]; CV risk score Very High): 0.67
- hazard ratio IDeg/IGlar (risk of MACE) ([1]; patients who have a high CV risk score): < 1
- Estimate (risk of MACE, IDeg compared to IGlar) ([1]; subgroup: Age 65-75 years AND systolic blood pressure < 140 mmHg): 0.70
- Estimate (risk of MACE, IDeg compared to IGlar) ([1]; subgroup: Age < 65 years AND diastolic blood pressure ≥ 80 mmHg): 0.64
- Estimate (risk of MACE, IDeg compared to IGlar) ([1]; subgroup: Age < 65 years AND treated with statins): 0.75
- Estimate (risk of MACE, IDeg compared to IGlar) ([1]; subgroup: BMI ≥ 30 kg/m^2 AND diastolic blood pressure ≥ 80 mmHg): 0.68
- Estimate (risk of MACE, IDeg compared to IGlar) ([1]; subgroup: Diastolic blood pressure < 90 mmHg AND HDL ≥ 1.0 mmol/L): 0.80
- Estimate (risk of MACE, IDeg compared to IGlar) ([1]; subgroup: Diastolic blood pressure ≥ 80 mmHg AND treated with statins): 0.73
- Estimate (risk of MACE, IDeg compared to IGlar) ([1]; subgroup: Diastolic blood pressure ≥ 80 mmHg AND triglycerides > 1.7 mmol/L): 0.69
- Estimate (risk of MACE, IDeg compared to IGlar) ([1]; subgroup: Established CV risk AND HDL ≥ 1.0 mmol/L): 0.78
- Estimate (risk of MACE, IDeg compared to IGlar) ([1]; subgroup: Established CV risk AND diastolic blood pressure ≥ 80 mmHg): 0.76
- Estimate (risk of MACE, IDeg compared to IGlar) ([1]; subgroup: Established CV risk AND pulse ≥ 70 bpm): 0.80
- Estimate (risk of MACE, IDeg compared to IGlar) ([1]; subgroup: Height <170 cm AND treated with statins): 0.75
- Estimate (risk of MACE, IDeg compared to IGlar) ([1]; subgroup: Non-White AND diastolic blood pressure < 90 mmHg): 0.64
- Estimate (risk of MACE, IDeg compared to IGlar) ([1]; subgroup: Not Hispanic or Latino AND Non-White): 0.64
- Estimate (risk of MACE, IDeg compared to IGlar) ([1]; subgroup: Not Hispanic or Latino AND triglycerides > 1.7 mmol/L): 0.79
- Estimate (risk of MACE, IDeg compared to IGlar) ([1]; subgroup: Previous smoker AND age < 65 years): 0.73
- Estimate (risk of MACE, IDeg compared to IGlar) ([1]; subgroup: Previous smoker AND cholesterol ≥ 3 mmol/L): 0.79
- Estimate (risk of MACE, IDeg compared to IGlar) ([1]; subgroup: Previous smoker AND diastolic blood pressure ≥ 80 mmHg): 0.66
- Estimate (risk of MACE, IDeg compared to IGlar) ([1]; subgroup: Previous smoker AND treated with statins): 0.79
- Estimate (risk of MACE, IDeg compared to IGlar) ([1]; subgroup: Previous smoker AND triglycerides > 1.7 mmol/L): 0.73
- Estimate (risk of MACE, IDeg compared to IGlar) ([1]; subgroup: Pulse ≥ 70 bpm AND diastolic blood pressure ≥ 80 mmHg): 0.74
- Estimate (risk of MACE, IDeg compared to IGlar) ([1]; subgroup: Pulse ≥ 70 bpm AND triglycerides > 1.7 mmol/L): 0.76
- Estimate (risk of MACE, IDeg compared to IGlar) ([1]; subgroup: Pulse ≥ 70 mmHg AND treated with statins): 0.72
- Estimate (risk of MACE, IDeg compared to IGlar) ([1]; subgroup: Systolic blood pressure <140 mmHg AND HDL ≥ 1.0 mmol/L): 0.73
- Estimate (risk of MACE, IDeg compared to IGlar) ([1]; subgroup: Triglycerides > 1.7 mmol/L AND HDL ≥ 1.0 mmol/L): 0.69
- Estimate (risk of MACE, IDeg compared to IGlar) ([1]; subgroup: Triglycerides > 1.7 mmol/L AND treated with statins): 0.78
- Adverse event and tolerability profiles [2]: consistent with previous findings
- ΔHeart rate [2]: −0.6 bpm
- Systolic Blood Pressure variability, Rate [3]: 0.94
- 8PP SMPG - Within-day variability, Rate ([3]; relative fluctuation of 8-point profile, log scale ANOVA): 0.98
- Pre-breakfast SMPG - between-day variability, Rate ([3]; variances analysed on log scale, ANOVA): 0.90
- Free fatty acids ([4]; Baseline): 0.5 mmol/L
- HDL cholesterol ([4]; Baseline): 1.2 mmol/L
- LDL cholesterol ([4]; Baseline): 2.4 mmol/L
- Total cholesterol ([4]; Baseline): 4.6 mmol/L
- Triglycerides ([4]; Baseline): 1.8 mmol/L
- VLDL cholesterol ([4]; Baseline): 0.8 mmol/L
- Free fatty acids ([4]; End of trial (26 weeks)): 0.4 mmol/L
- HDL cholesterol ([4]; End of trial (26 weeks)): 1.2 mmol/L
- LDL cholesterol ([4]; End of trial (26 weeks)): 2.4 mmol/L
- Total cholesterol ([4]; End of trial (26 weeks)): 4.5 mmol/L
- Triglycerides ([4]; End of trial (26 weeks)): 1.6 mmol/L
- VLDL cholesterol ([4]; End of trial (26 weeks)): 0.7 mmol/L
- ΔDiastolic blood pressure ([4]; change from baseline, 26 weeks): −0.7 mmHG
- ΔSystolic blood pressure ([4]; change from baseline, 26 weeks): −1.7 mmHG
